Values of other authors, collected in patent US20050059682A1, “Compositions and methods for treatment of cancer” (priority 2003, published 2005).

What was measured:
prostate cancer = details: single-agent chemotherapy of prostate cancer
HDAC = details: in vitro or in vivo for SAHA, SBHA, CBHA

Compound	efficacy as single agent (prostate cancer)	further results
O=c1[nH]cc(F)c(=O)[nH]1 [5-fluorouracil]	minimal efficacy	–
O=C(/C=C/c1cccc(C(=O)NO)c1)NO [CBHA, m-carboxy-cinnamic acid bishydroxamic acid]	–	concentration at which HDAC is inhibited (HDAC): micromolar concentration or lower
C/C=C1\NC(=O)[C@H]2CSSCC/C=C/[C@H](CC(=O)N[C@H](C(C)C)C(=O)N2)OC(=O)[C@H](C(C)C)NC1=O [FR901228]	–	concentration at which HDAC is inhibited (HDAC): micromolar concentrations
CC(/C=C/C(=O)NO)=C\[C@@H](C)C(=O)c1ccc(N(C)C)cc1 [TSA, trichostatin A]	–	inhibition of mammalian HDAC (mammalian HDAC): potent inhibitor
N.N.[Cl][Pt][Cl] [cisplatin]	minimal efficacy	–
O=P1(N(CCCl)CCCl)NCCCO1 (stereo not shown) [cyclophosphamide]	minimal efficacy	–
Nc1ncn([C@H]2C[C@H](O)[C@@H](CO)O2)c(=O)n1 [decitabine, 5-aza-2′-deoxycytidine]	–	half life in vivo: short half life; tissue distribution (in vivo): excellent tissue distribution
COc1cccc2c1C(=O)c1c(O)c3c(c(O)c1C2=O)C[C@@](O)(C(=O)CO)C[C@@H]3O[C@H]1C[C@H](N)[C@H](O)[C@H](C)O1 [doxorubicin]	minimal efficacy	–
C[C@]12CC[C@@H]3c4ccc(OC(=O)N(CCCl)CCCl)cc4CC[C@H]3[C@@H]1CC[C@@H]2O [estramustine]	minimal efficacy	–
CN(Cc1cnc2nc(N)nc(N)c2n1)c1ccc(C(=O)N[C@@H](CCC(=O)O)C(=O)O)cc1 [methotrexate]	minimal efficacy	–
O=C1c2c(O)ccc(O)c2C(=O)c2c(NCCNCCO)ccc(NCCNCCO)c21 [mitoxantrone]	minimal efficacy	–
depudecin	–	concentration at which HDAC is inhibited (HDAC): micromolar concentrations
